The text below walks through data of patent US8674118B2, “Compounds and methods for the treatment or prevention of flavivirus infections” (priority 2005, dated 2014).

A word on the IC50: it is the concentration that inhibits the measured activity by half.

Molecules are shown by their SMILES.

The assay relates to HCV RNA replication (replicon cell lines Huh-7, 5.2 and ET). The assay is described as follows: Cell-Based Luciferase Reporter HCV RNA Replication Assay. As to conditions: Hepatitis C virus, Huh-7, 96 h, Huh-7, 5.2 or ET replicon cells, luciferase counts after 4 days incubation; read-out: IC50. (Reporter assays use an easily measured gene product as a stand-in for the process of interest.)

Consider `CC(C)C(=O)N1CCC(N(c2cc(C3=CCCCC3)sc2C(=O)O)C(=O)[C@H]2CC[C@H](C)CC2)CC1` [Compound 141, 5-Cyclohex-1-enyl-3-[(1-isobutyryl-piperidin-4-yl)-(trans-4-methylcyclohexanecarbonyl)-amino]-thiophene-2-carboxylic acid], for which the IC50 is less than 5 µM.

As to `CSCO[C@H]1CC[C@H](N(c2cc(C3=CCCCC3)sc2C(=O)O)C(=O)[C@H]2CC[C@H](C)CC2)CC1` [Compound 142, 5-cyclohex-1-enyl-3-[(trans-4-methyl-cyclohexanecarbonyl)-(trans-4-methylsulfanylmethoxy-cyclohexyl)-amino]-thiophene-2-carboxylic acid], the IC50 was less than 5 µM.
